Like-named read-outs stand apart in the source and are kept apart here.
What was measured:
[1] = system: Arthrobacter species KNK168 strain; test: Inducer added to culture medium; (R)-DMA formation by the separated cells; type: cell-based; conditions: cells reacted 30° C., 20 hours, 1% 1-(3,4-dimethoxyphenyl)-2-propanone, 1% (RS)-1-methylpropylamine
Experimental: When culturing the Arthrobacter species KNK168 strain by the method described in Example 1, (RS)-1-methylpropylamine, (RS)-1-methylbutylamine, (RS)-3-amino-2,2-dimethylbutane, (RS)-2-amino-1-butanol, or (RS)-1-phenylethylamine was added to the medium in place of (R)-1-(3,4-dimethoxyphenyl)-2-aminopropane ((R)-DMA). The cells were separated from the medium, and the reaction was carried out at 30° C. for 20 hours using the above cells in a reaction mixture containing 1% of 1-(3,4-dimethoxyphenyl)-2-propanone and 1% of (RS)-1-methylpropylamine.

[2] = system: Arthrobacter species KNK168 strain; test: Amino donor test; (R)-DMA formation by cultured cells; type: cell-based
Experimental: The cultured cells were harvested by centrifugation, and the harvested cells were suspended in a reaction mixture (pH 8.5) containing 1% of 1-(3,4-dimethoxyphenyl)-2-propanone, […] of Triton X-100, and 1% of an amino donor shown in Table 2. The components were reacted at 35° C. for 20 hours.

[3] = system: transaminase derived from Arthrobacter; test: Usability as amino group donor, transaminase of present invention; type: biochemical; conditions: +/− without printed key, or words
Text: Further, the transaminase derived from Arthrobacter which can be used in the present invention is different from the above-mentioned enzyme derived from Brevibacterium in many other aspects.

[4] = system: (R)-form-specific transaminase of Arthrobacter sp. KNK168; test: Reactivity of purified transaminase of present invention to amino compounds, pyruvic acid as amino acceptor; type: biochemical; parameters: Transaminase of Present Invention (Relative Activity: %), Substrate Specificity: concentration or dose not given beside the values; conditions: for Transaminase of Present Invention (Relative Activity: %), Substrate Specificity: pyruvic acid as amino acceptor
Text: (§1) The differences with the ω-amino acid transaminase derived from Pseudomonas sp. F-1 (Agric. Biol. Chem., 42, 2363-2367 (1978), Agric. Biol. Chem., 43, 1043-1048 (1979), J. Biol. Chem., 258, 2260-2265 (1983)) which have been well studied among the ω-amino acid transaminases, and with the benzylamine transaminase of Okada et al. (Japanese Patent Laid-Open No. Hei 6-178685) are summarized and shown in Table 2. In a case of the transaminase action in the present invention, the data of the purified enzyme are used, and in cases of those by other two enzymes, the data of the purified enzymes which are disclosed in each of the literature publication and patent publication are used. Pyruvic acid is used as an amino acceptor in all cases.
Using the purified enzyme obtained in Example 9, reactivities to various amino compounds when using pyruvic acid as an amino acceptor were evaluated. 150 μl of a solution of the purified enzyme diluted ten-folds was added to 150 μl of a substrate solution (0.1 M potassium phosphate buffer (pH 8.3), 40 mM pyruvic acid, 0.1 mM pyridoxal phosphate, and 40 mM various amino compounds). The components were reacted at 30° C. for 1 hour. The reaction tube was transferred into boiling water to stop the reaction, and, thereafter, a part of the reaction mixture was diluted five-folds. Ten μl of 0.1 M boric acid buffer (pH 8.0) and 20 μl of an ethanol solution of 80 mM of 4-fluoro-7-nitro-2,1,3-benzoxadiazole (NBD-F) were added to 10 μl of the above-mentioned diluted reaction mixture. The components were reacted at 60° C. for 1 minute, and, thereafter, the reaction mixture was ice-cooled, and 460 μl of 5 mM HCl was added thereto. This reaction mixture was analyzed by high-performance liquid chromatography using fine pack C18-5 column and using a 0.1 M potassium phosphate buffer (pH 6.5) and CH3CN (90:10) as an eluent solution to detect formation of alanine-NBD using excitation wavelength of 470 nm and using detection wave of […]. The results thereof are shown in Table 8 in terms of relative activity in the case of using […] as a substrate.

[5] = biological target: T1, ω-amino acid transaminase derived from Pseudomonas sp. F-1 (Pseudomonas putida, UniProt P28269); parameters: concentration or dose not given beside the values; conditions: purified enzyme, literature data; pyruvic acid as amino acceptor; cited from earlier work
T1 sequence (P28269 1-449): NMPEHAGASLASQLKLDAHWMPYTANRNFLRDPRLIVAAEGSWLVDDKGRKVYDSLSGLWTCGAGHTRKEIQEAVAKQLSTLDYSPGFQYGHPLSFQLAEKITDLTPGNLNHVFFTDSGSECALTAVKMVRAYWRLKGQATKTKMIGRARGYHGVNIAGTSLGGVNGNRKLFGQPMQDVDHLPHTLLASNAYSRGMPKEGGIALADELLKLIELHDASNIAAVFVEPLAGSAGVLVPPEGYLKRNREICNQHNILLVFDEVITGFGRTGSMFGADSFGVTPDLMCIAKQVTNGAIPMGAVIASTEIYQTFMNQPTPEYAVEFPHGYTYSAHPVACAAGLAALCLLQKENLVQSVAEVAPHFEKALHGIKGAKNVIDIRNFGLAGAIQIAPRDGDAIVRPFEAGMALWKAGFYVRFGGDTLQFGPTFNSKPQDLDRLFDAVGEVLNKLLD

[6] = system: benzylamine transaminase of Okada et al.; parameters: Transaminase of Okada et al. (Relative Activity: %), Substrate Specificity: concentration or dose not given beside the values; conditions: cited from earlier work; for Transaminase of Okada et al. (Relative Activity: %), Substrate Specificity: purified enzyme, patent publication data, pyruvic acid as amino acceptor
[7] = system: transaminase (intracellular enzyme) of Arthrobacter sp. KNK168; test: Activity of the transaminase (intracellular enzyme) against typical substrates of ω-aminotransferases; type: biochemical
[8] = system: benzylamine transaminase of Okada et al.; conditions: without addition = 100, cited from earlier work
[9] = system: (R)-form-specific transaminase of Arthrobacter sp. KNK168; test: Influence of reaction inhibitors on purified transaminase of present invention; type: biochemical; conditions: for Transaminase of Present Invention (Relative Activity: %) with inhibitor: inhibitor 1 mM, without addition = 100
Text: as §1

[10] = biological target: T1, ω-amino acid transaminase derived from Pseudomonas sp. F-1; conditions: inhibitor 1 mM; without addition = 100; cited from earlier work
[11] = system: Arthrobacter species KNK168 strain; test: Resolution of racemic 2-amino-1-methoxypropane by cells with aldehyde amino acceptors; type: cell-based; conditions: 150 mM aldehyde as amino acceptor, 200 mM racemic 2-amino-1-methoxypropane, 30° C., 20 hours
Experimental: The Arthrobacter species KNK168 strain was cultured in the same manner as in Example 13, and the cells were separated from 1 ml of the culture. The cells were suspended in 1 ml of a reaction mixture containing a 0.1 M Tris-hydrochloric acid buffer (pH 8.5), 50 mg of racemic 2-amino-1-methoxypropane, 37.5 mg of pyruvic acid, and 0.1% of sodium dodecyl sulfate. The components were reacted at 30° C. for 24 hours with stirring. As a result of the analysis after the reaction, 23.4 mg of 2-amino-1-methoxypropane remained, and its optical purity was 95% ee ((S)-form).
By carrying out the same reaction as in Example 14 using 200 mM racemic 2-amino-1-methoxypropane, and 150 mM n-butylaldehyde or propionaldehyde, the components were reacted at 30° C. for 20 hours. As a result of the analysis thereof, the (S)-form of 2-amino-1-methoxypropane was concentrated, and the ratio of the (S)-form was 76% in a case of using n-butylaldehyde, and 58% in a case of using propionaldehyde.

Structure (SMILES): CCC(C)N (racemic) [(RS)-1-Methylpropylamine]
- (R)-DMA Formed (%), inducer in culture medium [1]: 22.3%
- function as amino donor [2]: functioned as amino donors
- (R)-DMA Formed (%), amino group donor ([2]; 1% amino donor, 1% 1-(3,4-dimethoxyphenyl)-2-propanone, Triton X-100, pH 8.5, 35° C., 20 hours): 28.2%

Structure (SMILES): N[C@@H](CC(=O)O)C(=O)O [aspartic acid]
- Amino Group Donor, Transaminase of Present Invention [3]: cannot be used as an amino donor

Structure (SMILES): NCCCCN [Putrescine]
- action of the transaminase derived from Arthrobacter on the substrate [4]: does not act
- Transaminase of Present Invention (Relative Activity: %), Substrate Specificity ([4]; purified enzyme): 0%
- ω-Amino Acid Transaminase (Relative Activity: %), Substrate Specificity [5]: 55%
- Transaminase of Okada et al. (Relative Activity: %), Substrate Specificity [6]: 0%
- Relative Activity (%) as amino donor ([7]; amino acceptor 2-ketoglutaric acid, (R)-1-phenylethylamine/pyruvic acid control = 100): 0%

Structure (SMILES): O=S(=O)([O-])[O-].[Cu+2] [CuSO4]
- Transaminase of Okada et al. (Relative Activity: %) with inhibitor ([8]; inhibitor 0.5 mM): 5%
- Transaminase of Present Invention (Relative Activity: %) with inhibitor [9]: 44%

Structure (SMILES): NCc1ccccc1 [Benzylamine]
- Relative Activity (%) of amino compounds ([4]; purified enzyme, 40 mM amino compound in substrate solution, 40 mM pyruvic acid, pH 8.3, 30° C., 1 hour, (R)-1-phenylethylamine = 100): 0.8%
- Transaminase of Present Invention (Relative Activity: %), Substrate Specificity ([4]; purified enzyme): 0.8%
- ω-Amino Acid Transaminase (Relative Activity: %), Substrate Specificity [5]: 45%
- action of benzylamine transaminase on substrate ([6]; in the presence of pyruvic acid): strongly acts
- Transaminase of Okada et al. (Relative Activity: %), Substrate Specificity [6]: 100%

Structure (SMILES): CCCC(C)N (racemic) [(RS)-1-Methylbutylamine]
- (R)-DMA Formed (%), inducer in culture medium [1]: 13.0%
- function as amino donor [2]: functioned as amino donors

Structure (SMILES): N[C@@H](CCC(=O)O)C(=O)O [glutamic acid]
- Amino Group Donor, Transaminase of Present Invention [3]: cannot be used as an amino donor

Structure (SMILES): NO [Hydroxylamine]
- Transaminase of Okada et al. (Relative Activity: %) with inhibitor ([8]; inhibitor 0.1 mM): 30%
- influence of reaction inhibitor on the transaminase derived from Arthrobacter [9]: affected only a little
- Transaminase of Present Invention (Relative Activity: %) with inhibitor [9]: 17%
- ω-Amino Acid Transaminase (Relative Activity: %) with inhibitor [10]: 0%

Structure (SMILES): NCCC(=O)O [β-Alanine]
- action of the transaminase derived from Arthrobacter on the substrate [4]: does not act
- Transaminase of Present Invention (Relative Activity: %), Substrate Specificity ([4]; purified enzyme): 0%
- ω-Amino Acid Transaminase (Relative Activity: %), Substrate Specificity [5]: 100%
- Transaminase of Okada et al. (Relative Activity: %), Substrate Specificity [6]: 0%
- activity of the transferase to amino donor [7]: does not act
- Relative Activity (%) as amino donor ([7]; amino acceptor pyruvic acid, (R)-1-phenylethylamine control = 100): 0%

Structure (SMILES): Cl.N [ammonium chloride]
- Amino Group Donor, Transaminase of Present Invention [3]: cannot be used as an amino donor

Structure (SMILES): NNc1ccccc1 [Phenylhydrazine]
- Transaminase of Okada et al. (Relative Activity: %) with inhibitor ([8]; inhibitor 1 mM): 27%
- influence of reaction inhibitor on the transaminase derived from Arthrobacter [9]: affected only a little
- Transaminase of Present Invention (Relative Activity: %) with inhibitor [9]: 82%
- ω-Amino Acid Transaminase (Relative Activity: %) with inhibitor [10]: 6%

Structure (SMILES): CC(N)c1ccccc1 (racemic) [(RS)-1-Phenylethylamine]
- (R)-DMA Formed (%), inducer in culture medium [1]: 8.0%
- function as amino donor [2]: most highly preferable

Structure (SMILES): CCC=O [propionaldehyde]
- ratio of the (S)-form of 2-amino-1-methoxypropane [11]: 58%

Structure (SMILES): O=C(O)c1cc[c]([Hg][Cl])cc1 [p-Chloromercuribenzoic acid]
- Transaminase of Okada et al. (Relative Activity: %) with inhibitor ([8]; inhibitor 0.1 mM): 9%
- Transaminase of Present Invention (Relative Activity: %) with inhibitor [9]: 53%
- ω-Amino Acid Transaminase (Relative Activity: %) with inhibitor [10]: 100%

Structure (SMILES): CC(N)C(C)(C)C (racemic) [(RS)-3-Amino-2,2-dimethylbutane]
- (R)-DMA Formed (%), inducer in culture medium [1]: 18.6%

Structure (SMILES): CCCCN [n-Butylamine]
- action of the transaminase derived from Arthrobacter on the substrate [4]: does not act
- Transaminase of Present Invention (Relative Activity: %), Substrate Specificity ([4]; purified enzyme): 0%
- ω-Amino Acid Transaminase (Relative Activity: %), Substrate Specificity [5]: 60%
- Transaminase of Okada et al. (Relative Activity: %), Substrate Specificity [6]: 0%

Structure (SMILES): COc1ccc(C[C@@H](C)N)cc1OC [(R)-DMA, (R)-1-(3,4-dimethoxyphenyl)-2-aminopropane]
- (R)-DMA Formed (%), inducer in culture medium [1]: 0.9%

Structure (SMILES): NCCc1ccccc1 [β-Phenethylamine]
- Transaminase of Present Invention (Relative Activity: %), Substrate Specificity ([4]; purified enzyme): 0%
- ω-Amino Acid Transaminase (Relative Activity: %), Substrate Specificity [5]: 54%
- Transaminase of Okada et al. (Relative Activity: %), Substrate Specificity [6]: 9%

Structure (SMILES): CCCC=O [n-butylaldehyde]
- ratio of the (S)-form of 2-amino-1-methoxypropane [11]: 76%

Structure (SMILES): NC1C=CC=C(C(=O)O)C1 (racemic) [Gabaculine]
- Transaminase of Present Invention (Relative Activity: %) with inhibitor [9]: 24%
- ω-Amino Acid Transaminase (Relative Activity: %) with inhibitor [10]: 0%

Structure (SMILES): CCC(N)CO (racemic) [(RS)-2-Amino-1-butanol]
- (R)-DMA Formed (%), inducer in culture medium [1]: 12.9%

Reference: US6344351B2, “(R)-transaminase from arthrobacter” (Kaneka Corporation, priority 1995, dated 2002)
